Some results are limits rather than exact numbers.

The term EC50 denotes the concentration at which the effect is half-maximal.

The target in this experiment is Intestinal-type alkaline phosphatase (Homo sapiens, UniProt P09923). In words: activation of human intestinal alkaline phosphatase – biochemical, dose response (AID 488873).
Sequence of Intestinal-type alkaline phosphatase (P09923 whole entry): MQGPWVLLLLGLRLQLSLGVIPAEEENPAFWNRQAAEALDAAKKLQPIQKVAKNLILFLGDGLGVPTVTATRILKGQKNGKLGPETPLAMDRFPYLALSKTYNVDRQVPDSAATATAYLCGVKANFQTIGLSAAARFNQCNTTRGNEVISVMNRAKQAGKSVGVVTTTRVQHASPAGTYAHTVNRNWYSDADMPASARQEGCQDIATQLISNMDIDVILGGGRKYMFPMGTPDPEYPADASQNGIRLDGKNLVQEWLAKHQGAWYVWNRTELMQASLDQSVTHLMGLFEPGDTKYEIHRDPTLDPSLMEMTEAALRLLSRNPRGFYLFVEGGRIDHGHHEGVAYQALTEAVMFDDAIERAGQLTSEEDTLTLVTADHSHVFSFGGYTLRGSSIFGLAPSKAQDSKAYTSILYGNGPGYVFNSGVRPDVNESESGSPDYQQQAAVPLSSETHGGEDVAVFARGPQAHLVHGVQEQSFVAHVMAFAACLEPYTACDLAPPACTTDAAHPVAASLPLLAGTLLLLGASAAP
The compound `CN(CCO)c1ccc(CN=Nc2ccc([N+](=O)[O-])cc2S(=O)(=O)Nc2ccccc2C(=O)O)cc1` registered an EC50 of 26.6 µM.

Consider `Oc1ccc(CN=Nc2cc(N3CCCC3)nc(N3CCCC3)n2)cc1O` [(4Z)-4-[[2-(2,6-dipyrrolidin-1-ylpyrimidin-4-yl)hydrazinyl]methylidene]-2-hydroxycyclohexa-2,5-dien-1-one], for which the EC50 was over 100 µM.

In the case of `Cc1cc(=O)[nH]c(N=NCc2ccc(O)c(O)c2)n1` [MLS001194906], the concentration for a half-maximal effect (EC50) was found to be 66.2 µM.

`O=C1CC(=O)c2c(O)cc(O)c(O)c2C1=O` [4,5,7,8-tetrahydroxy-1,2-naphthoquinone]: the EC50 was over 100 µM.

In the case of `O=C(NN=CC1=CC(=O)C(=O)CC1)NN=CC1=CC(=O)C(=O)CC1` [1,3-bis[[(Z)-(3-hydroxy-4-oxocyclohexa-2,5-dien-1-ylidene)methyl]amino]urea], the EC50 was found to be 66.2 µM.

On to `C#CCOCCOCCOCCNc1nc(N2CCN(C(=O)CCCCCCCCCCNC(=O)[C@@H](CCC(=O)O)n3cc(CCCCCN)nn3)CC2)nc(N2CCN(C(=O)CCCCCCCCCCNC(=O)[C@H]([C@@H](C)CC)n3cc(CCCCCN)nn3)CC2)n1` [KI-KE], for which the concentration for a half-maximal effect (EC50) was over 100 µM.

For the origin of these results see BindingDB's records for doi:10.7270/Q29G5K8R (Burnham Center For Chemical Genomics, 2010).
